Data taken from PMC5101293, “Acyclic nucleoside phosphonates containing the amide bond” (Monatshefte Fur Chemie, 2016).

Key:
[1] = tested on: human cervix carcinoma HeLa; assay: Cytostatic activity assay, HeLa; type: cell-based; details: HeLa cells, 72 h, read-out: IC50 (50% cytostatic inhibitory concentration, cell proliferation)
Procedure: (§1) The 50% cytostatic inhibitory concentration (IC50) causing a 50% decrease in cell proliferation was determined against murine leukemia L1210, human lymphocyte CEM, human cervix carcinoma HeLa, and human dermal microvascular endothelial cells (HMEC-1).
(§2) All assays were performed in 96-well microtiter plates. To each well were added (5–7.5) × 10^4 tumor cells and a given amount of the test compound. The cells were allowed to proliferate for 48 h (murine leukemia L1210 cells) or 72 h (human lymphocytic CEM and human cervix carcinoma HeLa cells) at 37 °C in a humidified CO2-controlled atmosphere. At the end of the incubation period, the cells were counted in a Coulter counter. The IC50 (50% inhibitory concentration) was defined as the concentration of the compound that inhibited cell proliferation by 50%.

murine leukemia L1210 = assay: Cytostatic activity assay, L1210; type: cell-based; details: Mus musculus; L1210 cells, 48 h; read-out: IC50 (50% cytostatic inhibitory concentration, cell proliferation)
Procedure: as §1, §2

L1210 cells = tested on: L1210 cells; design: method as in doi:10.1135/cccc19822806; details: cited from earlier work

SMILES | melting point | also measured
CCOP(=O)(CCNC(=O)Cn1ccc(=O)[nH]c1=O)OCC | 138 to 140 °C | –
CCOP(=O)(CCCNC(=O)Cn1cc(Br)c(=O)[nH]c1=O)OCC | 164 to 166 °C | –
CCOP(=O)(CCNC(=O)Cn1ccc(NC(=O)OCc2ccccc2)nc1=O)OCC | 127 to 128 °C | –
CCOP(=O)(CCCNC(=O)Cn1ccc(NC(=O)OCc2ccccc2)nc1=O)OCC | 150 to 151 °C | –
CCOP(=O)(CNC(=O)Cn1cnc2c(N(C(=O)OC(C)(C)C)C(=O)OC(C)(C)C)ncnc21)OCC | 128 to 130 °C | –
CCOP(=O)(CCNC(=O)Cn1cnc2c(Cl)nc(N)nc21)OCC | 158 to 160 °C | –
CCOP(=O)(CCCNC(=O)Cn1cnc2c(Cl)nc(N)nc21)OCC | 180 to 181 °C | –
CCOP(=O)(CCCNC(=O)Cn1ccc(=O)[nH]c1=O)OCC (hydrate or solvate) | 120 to 122 °C | –
CCOP(=O)(CCCNC(=O)Cn1cc(F)c(=O)[nH]c1=O)OCC (hydrate or solvate) | 143 to 144 °C | –
CCOP(=O)(CCCNC(=O)Cn1cc(C)c(=O)[nH]c1=O)OCC (hydrate or solvate) | 183 to 184 °C | –
CCOP(=O)(CNC(=O)Cn1ccc(NC(=O)OCc2ccccc2)nc1=O)OCC (hydrate or solvate) | 180 to 182 °C | –
CCOP(=O)(CNC(=O)Cn1cnc2c(Cl)nc(N)nc21)OCC (hydrate or solvate) | 130 to 132 °C | –
CCOP(=O)(CNC(=O)Cn1cnc2c(=O)[nH]c(N)nc21)OCC (hydrate or solvate) | 165 °C (dec.) | –
CCOP(=O)(CCNC(=O)Cn1cnc2c(=O)[nH]c(N)nc21)OCC (hydrate or solvate) | 175 °C (dec.) | –
CCOP(=O)(CCCNC(=O)Cn1cnc2c(=O)[nH]c(N)nc21)OCC (hydrate or solvate) | 155 °C (dec.) | –
CCOP(=O)(COCCNC(=O)Cn1cc(F)c(=O)[nH]c1=O)OCC [18d] | 69 to 70 °C | IC50 [1]: 194 ± 19 µM; IC50 (murine leukemia L1210): 89 ± 16 µM
O=C(Cn1cc(F)c(=O)[nH]c1=O)NC(CO)(CO)CO [18e] | – | concentration at which found active in vitro against L1210 cells (L1210 cells): 15 µM

Second part, led by results:

melting point | SMILES | also measured
215 to 217 °C | CCOP(=O)(CNC(=O)Cn1ccc(=O)[nH]c1=O)OCC | –
185 to 186 °C | CCOP(=O)(CCNC(=O)Cn1cc(F)c(=O)[nH]c1=O)OCC | –
211 to 213 °C | CCOP(=O)(CNC(=O)Cn1cc(Br)c(=O)[nH]c1=O)OCC | –
211 to 213 °C | CCOP(=O)(CCNC(=O)Cn1cc(Br)c(=O)[nH]c1=O)OCC | –
211.5 to 212.5 °C | CCOP(=O)(CNC(=O)Cn1cc(C)c(=O)[nH]c1=O)OCC | –
196 to 197 °C | CCOP(=O)(CCNC(=O)Cn1cc(C)c(=O)[nH]c1=O)OCC | –
180 to 182 °C | CCOP(=O)(CCNC(=O)Cn1c(=O)[nH]c(=O)c2ccccc21)OCC | –
168 to 169 °C | CCOP(=O)(CCCNC(=O)Cn1c(=O)[nH]c(=O)c2ccccc21)OCC | –
205 to 208 °C | CCOP(=O)(CNC(=O)Cn1cc(F)c(=O)[nH]c1=O)OCC (hydrate or solvate) | –
203 to 205 °C | CCOP(=O)(CNC(=O)Cn1c(=O)[nH]c(=O)c2ccccc21)OCC (hydrate or solvate) | –
